Assay [1] deals with S. aureus. The assay is described as follows: Agar well diffusion test without BNC. The assay is classed as cell-based, Staphylococcus aureus. Here is the method:
For the agar diffusion test the OD600 of B. megaterium and B. subtilis was adjusted to 0.1 McFarland using sterilized saline NaCl 0.9%. The OD600 of S. aureus was adjusted to 0.5 McFarland using sterilized saline NaCl 0.9%. 20 μl of S. aureus was spread on the surface of Mueller-Hinton agar plate by a sterilized glass spreader. The wells are […] on the agar plate using the back side of a 1 ml pipette tip. A small volume of Mueller-Hinton agar was melted in boiling water bath, then 100 μl of it was used to close the bottom of each created well. After solidification of the agar in the bottom of the wells, the wells were filled with 100 μl of: Negative control, sterilized saline NaCl 0.9%, Positive control, gentamicin 300 μg/ml, B. megaterium or B. subtilis-free supernatant, B. megaterium or B. subtilis suspension.
For orientation: A growth-free zone around the sample is the usual read-out of agar diffusion tests.

Assay [2] deals with S. aureus. The assay is described as follows: Agar diffusion test with loaded BNC fleeces. The class given is cell-based, Staphylococcus aureus. Here is the method: The evaluation of the antibacterial activity of B. subtilis and B. megaterium loaded-BNC against gram-positive S. aureus was determined by an agar diffusion test. Therefore, the bacterial suspensions of B. subtilis and S. aureus were prepared in TSB broth medium as described before. […] 3 BNC fleeces were loaded using B. subtilis suspension in TSB medium, and 3 BNC fleeces were loaded using B. subtilis suspension in saline. Further 3 BNC fleeces were loaded using the B. subtilis free-supernatant, 3 BNC fleeces were loaded with gentamycin as positive control, and 3 BNC fleeces with isotonic saline as negative control. The OD600 of S. aureus was adjusted to 0.5 McFarland using sterilized saline NaCl 0.9% and the optical density spectrophotometer (Biophotometer) was determined. 20 μl of S. aureus was spread on the surface of Mueller-Hinton agar plate by a sterilized glass spreader. The last control and loaded BNC fleeces were added onto surface of the Mueller Hinton agar: 1. Negative control: saline-loaded BNC 2. Positive control: gentamicin-loaded BNC 3. B. subtilis-loaded BNC in TSB medium 4. B. subtilis-loaded BNC in saline 5. B. subtilis-free supernatant-loaded BNC.

In the case of gentamicin [Gentamycin], the “inhibition effect on S. aureus by diffusion test, Without BNC” value with S. aureus [1] is “+ (by detection of inhibition zone > 2 mm)”. In addition, in the assay with S. aureus [2] (loaded on BNC by injection), the “inhibition effect on S. aureus by diffusion test, on BNC - injection technique” value is “+ (by detection of inhibition zone > 2 mm)”. Moreover, the “inhibition effect on S. aureus by diffusion test, on BNC - spray technique” value with S. aureus [2] (loaded on BNC by spray) is given as “+ (by detection of inhibition zone > 2 mm)”. The “inhibition effect on S. aureus by diffusion test, on BNC - vortex technique” value with S. aureus [2] (loaded on BNC by vortex) is reported as “+ (by detection of inhibition zone > 2 mm)”.

These data come from US20220267719A1, “METHOD FOR LOADING OF MICROORGANISMS ON MULTIPHASE BIOMATERIALS” (priority 2019, published 2022).
